Assay results as given in publication PMC6502639 (Nature protocols, 2018).
Like-named read-outs stand apart in the source and are kept apart here.

Assays:
[1] = tested on: hiPSC-CMs; conditions: cited from earlier work; for hiPSC-CM cytotoxicity (in words): hiPSC-CMs
[2] = tested on: hiPSC-CMs; conditions: cited from earlier work
[3] = tested on: patient cardiac function; conditions: patients; abbreviations in table footnote; ref Table S1 in Sharma et al. 10; cited from earlier work
[4] = tested on: hiPSC-CMs
[5] = tested on: hiPSC-CMs; conditions: cited from earlier work; remark: listed apart in the source
[6] = tested on: hiPSC-CMs; conditions: cited from earlier work; remark: listed apart in the source
[7] = concentration at which 50% loss in hiPSC-CM viability is observed, 72 h
[8] = 0 to 1, average of normalized CoB and LD50 corrected by Cmax, without EC or AE

Compound	LD50 [1] [µM]	Normalized CSI (CSIN) [2]	Clinically reported cardiotoxicity [3]	Normalized CSI-Lite (CSINLITE) ([4]; human)	LD50 [1, 7] [µM]	Normalized CSI-Lite (CSINLITE) [4, 8]	hiPSC-CM cytotoxicity (in words) [1]	hiPSC-CM contractility alteration (in words) [5]	Effect on hiPSC-CM action potential / electrophysiology (in words) [6]
CCN(CC)CCNC(=O)c1c(C)[nH]c(/C=C2\C(=O)Nc3ccc(F)cc32)c1C [Sunitinib]	12.70	0.218	HF, LV, MI, QT, Hy^b	0.292					
CCCS(=O)(=O)Nc1ccc(F)c(C(=O)c2c[nH]c3ncc(-c4ccc(Cl)cc4)cc23)c1F [Vemurafenib]		0.003			32.10	0.002			
COc1cc2ncnc(Nc3ccc(F)c(Cl)c3)c2cc1OCCCN1CCOCC1 [Gefitinib]			None						
CNC(=O)c1cc(Oc2ccc(NC(=O)Nc3ccc(Cl)c(C(F)(F)F)c3)c(F)c2)ccn1 [Regorafenib]		0.010	MI, Hy^b		7.10	0.010			
Cc1nc(Nc2ncc(C(=O)Nc3c(C)cccc3Cl)s2)cc(N2CCN(CCO)CC2)n1 [Dasatinib]		0.524	QT, PE, Hy	0.599	42.00				
CS(=O)(=O)CCNCc1ccc(-c2ccc3ncnc(Nc4ccc(OCc5cccc(F)c5)c(Cl)c4)c3c2)o1 [Lapatinib]		0.209	LV, QT^b	0.190	100.76				
CN(C)C/C=C/C(=O)Nc1cc2c(Nc3ccc(F)c(Cl)c3)ncnc2cc1O[C@H]1CCOC1 [Afatinib]	12.30	0.444	None	0.515					
Cc1ccc(Nc2nccc(N(C)c3ccc4c(C)n(C)nc4c3)n2)cc1S(N)(=O)=O [Pazopanib]		0.671	QT, LV (rare)^b			1.000			
CC(C)(C)c1nc(-c2cccc(NS(=O)(=O)c3c(F)cccc3F)c2F)c(-c2ccnc(N)n2)s1 [Dabrafenib]		0.459			100.68	0.561			
Cc1ccc(C(=O)Nc2ccc(CN3CCN(C)CC3)c(C(F)(F)F)c2)cc1C#Cc1cnc2cccnn12 [Ponatinib]					4.30	0.225			
C[C@@H](Oc1cc(-c2cnn(C3CCNCC3)c2)cnc1N)c1c(Cl)ccc(F)c1Cl [Crizotinib]	8.60	0.063	QT, Brady			0.067			
Cc1cn(-c2cc(NC(=O)c3ccc(C)c(Nc4nccc(-c5cccnc5)n4)c3)cc(C(F)(F)F)c2)cn1 [Nilotinib]	29.00		QT, LV, Vas^a	0.148					
CNC(=O)c1ccccc1Sc1ccc2c(/C=C/c3ccccn3)n[nH]c2c1 [Axitinib]		1.000	HF (rare), Hy	1.000			does not substantially alter	does not substantially alter	
COc1cc2nccc(Oc3ccc(NC(=O)C4(C(=O)Nc5ccc(F)cc5)CC4)cc3)c2cc1OC [Cabozantinib]		0.769	None^b	1.000					
C#Cc1cccc(Nc2ncnc3cc(OCCOC)c(OCCOC)cc23)c1 [Erlotinib]	87.60	0.653	MI (rare)	0.570					
COc1cccc2c1C(=O)c1c(O)c3c(c(O)c1C2=O)C[C@@](O)(C(=O)CO)C[C@@H]3O[C@H]1C[C@H](N)[C@H](O)[C@H](C)O1 [Doxorubicin]		0.010	HF, LV^a	0.008	0.78				
CC(=O)Nc1cccc(-n2c(=O)n(C3CC3)c(=O)c3c(Nc4ccc(I)cc4F)n(C)c(=O)c(C)c32)c1 [Trametinib]				1.000	66.80				
COc1cc2c(Nc3ccc(Br)cc3F)ncnc2cc1OCC1CCN(C)CC1 [Vandetanib]		0.041	QT, TdP, SCD, HF, Hy^a		20.60	0.056		elicited arrhythmias and alterations in hiPSC-CM contractility	caused changes in hiPSC-CM electrophysiology and action potential duration
COc1cc(Nc2c(C#N)cnc3cc(OCCCN4CCN(C)CC4)c(OC)cc23)c(Cl)cc1Cl [Bosutinib]					12.39	0.423			
C=CC(=O)N1CCC[C@@H](n2nc(-c3ccc(Oc4ccccc4)cc3)c3c(N)ncnc32)C1 [Ibrutinib]		0.507		0.580					
CNC(=O)c1cc(Oc2ccc(NC(=O)Nc3ccc(Cl)c(C(F)(F)F)c3)cc2)ccn1 [Sorafenib]	3.40	0.004	QT, LV, HF, MI, Hy	0.003			highly cytotoxic to hiPSC-CMs		
